From patent US10040748B2, “4-hydroxybutyric acid analogs” (Concert Pharmaceuticals, Inc., priority 2011, dated 2018)
Counter-ions that a name gives are not always drawn.

Assays:
[1] = In vivo pharmacokinetic studies in rats (IV and PO dosing, plasma); conditions: rat; for AUC0-∞ / CL / Vz / Cmax / Tmax: mean of N=4; for % F: 200 mg/kg PO vs IV, printed in AUC0-∞ column
Method: The pharmacokinetics of exemplary compounds was determined by comparison with 4-hydroxybutyric acid by dosing the compounds in rats according to the following study design and sampling procedure.

[2] = humans; cited from earlier work
[3] = 200 mg/kg PO, mean of N=4, Cmin at 4 hr
[4] = 200 mg/kg IV, mean of N=4, Cmin at 2 hr
[5] = 200 mg/kg IV, mean of N=4, calculated up to 2 hr
[6] = 200 mg/kg PO, mean of N=4, calculated up to 4 hr

| SMILES | concentration at 2 hr ([1]; plasma, 200 mg/kg IV, mean of N=4, Cmin at 2 hr) [µg/mL] | Cmin [1, 3] [µg/mL] | half life [2] [min] | AUC0-∞ ([1]; 200 mg/kg IV) [µg·h/mL] | CL ([1]; 200 mg/kg IV) [L/h/kg] | Vz ([1]; 200 mg/kg IV) [L/kg] | Cmin [1, 4] [µg/mL] | t1/2 [1, 5] [min] | % F [1] [%] | AUC0-∞ ([1]; 200 mg/kg PO) [µg·h/mL] | Cmax ([1]; 200 mg/kg PO) [µg/mL] | Tmax ([1]; 200 mg/kg PO) [min] | t1/2 [1, 6] [min] | pharmacokinetics relative to 4-hydroxybutyric acid, sodium salt ([1]; 200 mg/kg, comparison of AUC0-∞ and t1/2) | AUC0-∞ fold change (printed in brackets under the PO AUC) ([1]; 200 mg/kg PO, reference not given, apparently vs 4-hydroxybutyric acid, sodium salt) |
| --- | --- | --- | --- | --- | --- | --- | --- | --- | --- | --- | --- | --- | --- | --- | --- |
| O=C(O)CCCO [4-hydroxybutyric acid, sodium salt, sodium salt of 4-hydroxybutyric acid, reference compound] | 8 | 2 | 30 to 60 |  |  |  |  |  |  |  |  |  |  |  |  |
| [2H]C([2H])(O)CC([2H])([2H])C(=O)[O-].[Na+] [IV-b, sodium salt, Sodium 2,2,4,4-d4-4-hydroxybutanoate] |  | 5 |  | 651 | 0.3 | 0.3 | 76 | 37.8 | 40 | 260 | 151 | 37.8 | 56.4 | considerably increased |  |
| [2H]C([2H])(CCO)C(=O)[O-].[Na+] [Sodium 2,2-d2-4-Hydroxybutanoate] |  | 1 |  | 476 | 0.42 | 0.2 | 19 | 19.8 | 41 | 193 | 153 | 37.8 | 35.4 |  | (+1.1X) |
